Laboratory results reported in patent publication US11566007B2, “Ras inhibitors” (Revolution Medicines, Inc., priority 2019, dated 2023).
Like-named read-outs stand apart in the source and are kept apart here.

Assays:
NRAS WT = NRAS WT (Homo sapiens (Human), UniProt P01111+P62937); assay: Ras-Raf (BRAF RBD) disruption / FRET / MOA assay, NRAS WT; type: biochemical; conditions: read-out: IC50* NRAS WT FRET data
How it was run: (§1)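 Compounds were tested as a 10-point 3-fold dilution series from 30 μM final for their ability to drive ternary complex formation between nucleotide-loaded Ras and cyclophilin A, displacing the BRAF RBD. After 3 h at 25° C., anti-His Eu-W1024 (10 nM) and anti-GST allophycocyanin (50 nM) were added for 1.5 h. A TR-FRET ratio decrease versus DMSO gave IC50.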

NRAS Q61K = NRAS Q61K (Homo sapiens (Human), UniProt P01111+P62937, Q61K); assay: Ras-Raf (BRAF RBD) disruption / FRET / MOA assay, NRAS Q61K; type: biochemical; conditions: NRAS Q61K; Ras-Raf disruption/FRET/MOA assay; read-out: IC50* NRAS Q61K FRET data
How it was run: as §1

KRAS Q61H = KRAS Q61H (Homo sapiens (Human), UniProt P01116+P62937, Q61H); assay: Ras-Raf (BRAF RBD) disruption / FRET / MOA assay, KRAS Q61H; type: biochemical; conditions: Ras-Raf disruption/FRET/MOA assay; class symbols; read-out: KRAS Q61H FRET data IC50
How it was run: as §1

NRAS Q61R = NRAS Q61R (Homo sapiens (Human), UniProt P01111+P62937, Q61R); assay: Ras-Raf (BRAF RBD) disruption / FRET / MOA assay, NRAS Q61R; type: biochemical; conditions: NRAS Q61R; Ras-Raf disruption/FRET/MOA assay; read-out: IC50* NRAS Q61R FRET data
How it was run: as §1

KRAS WT = KRAS WT (Homo sapiens (Human), UniProt P01116+P62937); assay: Ras-Raf (BRAF RBD) disruption / FRET / MOA assay, KRAS WT; type: biochemical; conditions: read-out: IC50* KRAS WT FRET data
How it was run: (§2)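 TR-FRET read-out: a drop in ratio relative to DMSO wells marks disruption of the Ras:RAF complex, reported as IC50. Compounds (3-fold series, 10 points, top 30 μM final) incubated 3 h at 25° C before Eu-anti-His 10 nM and APC-anti-GST 50 nM, 1.5 h more.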

KRAS G12D = KRAS G12D (Homo sapiens (Human), UniProt P01116+P62937, G12D); assay: Ras-Raf (BRAF RBD) disruption / FRET / MOA assay, KRAS G12D; type: biochemical; conditions: Ras-Raf disruption/FRET/MOA assay; class symbols; read-out: KRAS G12D FRET data IC50
How it was run: as §2

K-Ras G13C = K-Ras G13C (Homo sapiens (Human), UniProt P01116+P62937, G13C); assay: Ras-Raf (BRAF RBD) disruption / FRET / MOA assay, KRAS G13C; type: biochemical; conditions: KRAS G13C; Ras-Raf disruption/FRET/MOA assay; read-out: IC50* KRAS G13C FRET data
How it was run: as §2

NCI-H358 (K-Ras G12C) = assay: CellTiter-Glo cell viability assay, NCI-H358; type: cell-based, human; conditions: Homo sapiens, NCI-H358, 120 h, NCI-H358, 5-day treatment; class symbols; read-out: Additional H358 Cell Viability assay data (K-Ras G12C, IC50)
How it was run: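 Compounds dispensed directly onto seeded K-Ras mutant cells; plates read on day 5 after ~30 min equilibration to room temperature, by CellTiter-Glo luminescence. Signal normalized as (sample/mean DMSO)×100, then fitted to a four-parameter logistic curve.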

K-Ras G12C = K-Ras G12C (Homo sapiens (Human), UniProt P01116+P62937, G12C); assay: Ras-Raf (BRAF RBD) disruption / FRET / MOA assay, KRAS G12C; type: biochemical; conditions: KRAS G12C; Ras-Raf disruption/FRET/MOA assay; read-out: IC50* KRAS G12C FRET data
How it was run: as §2

NRAS G12C = NRAS G12C (Homo sapiens (Human), UniProt P01111+P62937, G12C); assay: Ras-Raf (BRAF RBD) disruption / FRET / MOA assay, NRAS G12C; type: biochemical
How it was run: as §2

KRAS G12V = KRAS G12V (Homo sapiens (Human), UniProt P01116+P62937, G12V); assay: Ras-Raf (BRAF RBD) disruption / FRET / MOA assay, KRAS G12V; type: biochemical; conditions: read-out: IC50* KRAS G12V FRET data
How it was run: as §2

KRAS G12S = KRAS G12S (Homo sapiens (Human), UniProt P01116+P62937, G12S); assay: Ras-Raf (BRAF RBD) disruption / FRET / MOA assay, KRAS G12S; type: biochemical; conditions: Ras-Raf disruption/FRET/MOA assay; class symbols; read-out: KRAS G12S FRET data IC50
How it was run: as §2

[1] = read-out: IC50* NRAS G12C FRET data

Chain of KRAS G12V (P01116-2 other isoform, or with tags, fused parts or gaps G12V): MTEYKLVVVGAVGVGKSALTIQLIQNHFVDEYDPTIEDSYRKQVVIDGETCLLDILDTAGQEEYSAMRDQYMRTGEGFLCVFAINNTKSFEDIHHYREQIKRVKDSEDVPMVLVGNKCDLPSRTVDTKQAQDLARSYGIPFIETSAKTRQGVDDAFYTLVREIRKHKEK
Chain of KRAS G12V (P62937 whole entry): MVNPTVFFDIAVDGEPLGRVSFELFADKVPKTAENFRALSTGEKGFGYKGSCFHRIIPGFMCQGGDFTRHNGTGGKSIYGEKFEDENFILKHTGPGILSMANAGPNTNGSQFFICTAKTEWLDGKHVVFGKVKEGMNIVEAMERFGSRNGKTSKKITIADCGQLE
Chain of NRAS G12C (P01111 whole entry G12C): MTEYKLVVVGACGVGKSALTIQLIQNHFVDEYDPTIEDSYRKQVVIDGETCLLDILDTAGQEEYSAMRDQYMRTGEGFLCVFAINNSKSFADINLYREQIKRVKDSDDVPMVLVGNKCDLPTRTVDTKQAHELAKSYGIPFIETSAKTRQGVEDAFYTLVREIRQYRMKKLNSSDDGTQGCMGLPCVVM
Chain of NRAS G12C (P62937 whole entry): as the sequence (P62937 whole entry) above
Chain of KRAS G12S (P01116-2 other isoform, or with tags, fused parts or gaps G12S): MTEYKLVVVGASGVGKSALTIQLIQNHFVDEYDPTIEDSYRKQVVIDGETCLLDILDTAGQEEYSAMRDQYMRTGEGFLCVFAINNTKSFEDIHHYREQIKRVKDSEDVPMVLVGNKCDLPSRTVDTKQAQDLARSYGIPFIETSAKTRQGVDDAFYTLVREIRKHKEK
Chain of KRAS G12S (P62937 whole entry): as the sequence (P62937 whole entry) above
Chain of K-Ras G12C (P01116-2 other isoform, or with tags, fused parts or gaps G12C): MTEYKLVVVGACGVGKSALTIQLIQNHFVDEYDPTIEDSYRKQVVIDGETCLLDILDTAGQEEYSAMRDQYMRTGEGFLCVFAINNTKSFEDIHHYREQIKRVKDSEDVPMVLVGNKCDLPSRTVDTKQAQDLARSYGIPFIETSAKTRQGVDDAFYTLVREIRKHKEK
Chain of K-Ras G12C (P62937 whole entry): as the sequence (P62937 whole entry) above
Chain of KRAS Q61H (P01116-2 other isoform, or with tags, fused parts or gaps Q61H): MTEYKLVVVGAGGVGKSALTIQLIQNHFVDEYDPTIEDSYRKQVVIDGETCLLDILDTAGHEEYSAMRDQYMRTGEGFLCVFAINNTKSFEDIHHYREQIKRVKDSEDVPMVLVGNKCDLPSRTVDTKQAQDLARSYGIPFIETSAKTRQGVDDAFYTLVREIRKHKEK
Chain of KRAS Q61H (P62937 whole entry): as the sequence (P62937 whole entry) above
Chain of NRAS Q61K (P01111 whole entry Q61K): as the sequence (P01111 whole entry G12C) above, with C12G, Q61K counted along it
Chain of NRAS Q61K (P62937 whole entry): as the sequence (P62937 whole entry) above
Chain of NRAS WT (P01111 whole entry): as the sequence (P01111 whole entry G12C) above, with C12G counted along it
Chain of NRAS WT (P62937 whole entry): as the sequence (P62937 whole entry) above
Chain of KRAS WT (P01116-2 other isoform, or with tags, fused parts or gaps): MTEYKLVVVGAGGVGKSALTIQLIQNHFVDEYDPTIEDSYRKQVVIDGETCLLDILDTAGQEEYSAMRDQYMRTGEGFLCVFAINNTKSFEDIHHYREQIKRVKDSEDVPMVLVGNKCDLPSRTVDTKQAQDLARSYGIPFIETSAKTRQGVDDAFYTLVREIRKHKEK
Chain of KRAS WT (P62937 whole entry): as the sequence (P62937 whole entry) above
Chain of KRAS G12D (P01116-2 other isoform, or with tags, fused parts or gaps G12D): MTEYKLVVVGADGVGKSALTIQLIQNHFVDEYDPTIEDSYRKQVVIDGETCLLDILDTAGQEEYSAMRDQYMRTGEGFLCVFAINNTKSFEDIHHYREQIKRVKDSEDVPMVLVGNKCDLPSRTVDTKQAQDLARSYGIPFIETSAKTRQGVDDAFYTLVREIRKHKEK
Chain of KRAS G12D (P62937 whole entry): as the sequence (P62937 whole entry) above
Chain of NRAS Q61R (P01111 whole entry Q61R): as the sequence (P01111 whole entry G12C) above, with C12G, Q61R counted along it
Chain of NRAS Q61R (P62937 whole entry): as the sequence (P62937 whole entry) above
Chain of K-Ras G13C (P01116-2 other isoform, or with tags, fused parts or gaps G13C): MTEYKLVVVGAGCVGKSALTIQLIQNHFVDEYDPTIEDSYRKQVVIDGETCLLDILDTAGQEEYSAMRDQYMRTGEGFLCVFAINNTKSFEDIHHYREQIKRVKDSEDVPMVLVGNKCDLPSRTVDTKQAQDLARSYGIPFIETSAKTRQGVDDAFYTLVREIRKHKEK
Chain of K-Ras G13C (P62937 whole entry): as the sequence (P62937 whole entry) above

## CO[C@@H](C)c1ncccc1-c1c2c3cc(ccc3n1CC(F)(F)F)-c1nc(ns1)C[C@H](NC(=O)[C@@H](COC1CN(C(=O)C#CC(C)(C)N(C)C)C1)C(C)C)C(=O)N1CCC[C@H](N1)C(=O)OCC(C)(C)C2 (atropisomer, axis not shown) [Example A590, (2R)-2-(((1-(4-(dimethylamino)-4-methylpent-2-ynoyl)azetidin-3-yl)oxy)methyl)-N-((6^3S,4S,Z)-1^2-(2-((S)-1-methoxyethyl)pyridin-3-yl)-10,10-dimethyl-5,7-dioxo-1^1-(2,2,2-trifluoroethyl)-6^1,6^2,6^3,6^4,6^5,6^6-hexahydro-1^1H-8-oxa-2(5,3)-thiadiazola-1(5,3)-indola-6(1,3)-pyridazinacycloundecaphane-4-yl)-3-methylbutanamide]
NRAS WT
  IC50: 1000 to 10000 nM
NRAS Q61K
  IC50: 1000 to 10000 nM
KRAS Q61H
  IC50: 1000 to 10000 nM
NRAS Q61R
  IC50: > 10000 nM
KRAS WT
  IC50: 1000 to 10000 nM
KRAS G12D
  IC50: > 10000 nM
K-Ras G13C
  IC50: 1000 to 10000 nM
NCI-H358 (K-Ras G12C)
  IC50: < 10 nM
K-Ras G12C
  IC50: 10 to 100 nM
NRAS G12C; [1]
  IC50: 10 to 100 nM
KRAS G12V
  IC50: 1000 to 10000 nM
KRAS G12S
  IC50: 1000 to 10000 nM

## C=CC(=O)N1CCO[C@@]2(CCN(C(=O)N(C)[C@H](C(=O)N[C@H]3Cc4nc(cs4)-c4ccc5c(c4)c(c(-c4cccnc4[C@H](C)OC)n5CC(F)(F)F)CC(C)(C)COC(=O)[C@@H]4CCCN(N4)C3=O)C(C)C)C2)C1 (atropisomer, axis not shown) [Example A594]
NRAS WT
  IC50: 10 to 100 nM
NRAS Q61K
  IC50: 10 to 100 nM
KRAS Q61H
  IC50: 10 to 100 nM
NRAS Q61R
  IC50: 10 to 100 nM
KRAS WT
  IC50: 10 to 100 nM
KRAS G12D
  IC50: 100 to 1000 nM
K-Ras G13C
  IC50: 10 to 100 nM
NCI-H358 (K-Ras G12C)
  IC50: < 10 nM
K-Ras G12C
  IC50: 10 to 100 nM
NRAS G12C; IC50* NRAS G12C FRET data
  IC50: 10 to 100 nM
KRAS G12V
  IC50: 100 to 1000 nM
KRAS G12S
  IC50: 100 to 1000 nM

## C=CC(=O)N1CCO[C@H]2CN(C(=O)N(C)[C@H](C(=O)N[C@H]3Cc4cccc(n4)-c4ccc5c(c4)c(c(-c4cccnc4[C@H](C)OC)n5CC(F)(F)F)CC(C)(C)COC(=O)[C@@H]4CCCN(N4)C3=O)C(C)C)C[C@H]21 (atropisomer, axis not shown) [Example A595]
NRAS WT
  IC50: 100 to 1000 nM
NRAS Q61K
  IC50: 100 to 1000 nM
KRAS Q61H
  IC50: 100 to 1000 nM
NRAS Q61R
  IC50: 100 to 1000 nM
KRAS WT
  IC50: 100 to 1000 nM
KRAS G12D
  IC50: 1000 to 10000 nM
K-Ras G13C
  IC50: 10 to 100 nM
NCI-H358 (K-Ras G12C)
  IC50: < 10 nM
K-Ras G12C
  IC50: 10 to 100 nM
NRAS G12C; [1]
  IC50: 10 to 100 nM
KRAS G12V
  IC50: 1000 to 10000 nM
KRAS G12S
  IC50: 1000 to 10000 nM

## C=CC(=O)N1CCO[C@H]2CN(C(=O)N(C)[C@H](C(=O)N[C@H]3Cc4cccc(n4)-c4ccc5c(c4)c(c(-c4cccnc4[C@H](C)OC)n5CC)CC(C)(C)COC(=O)[C@@H]4CCCN(N4)C3=O)C(C)C)C[C@H]21 (atropisomer, axis not shown) [Example A597]
NRAS WT
  IC50: 1000 to 10000 nM
NRAS Q61K
  IC50: 100 to 1000 nM
KRAS Q61H
  IC50: 100 to 1000 nM
NRAS Q61R
  IC50: 100 to 1000 nM
KRAS WT
  IC50: 1000 to 10000 nM
KRAS G12D
  IC50: > 10000 nM
K-Ras G13C
  IC50: 10 to 100 nM
NCI-H358 (K-Ras G12C)
  IC50: < 10 nM
K-Ras G12C
  IC50: 10 to 100 nM
NRAS G12C; [1]
  IC50: 10 to 100 nM
KRAS G12V
  IC50: 1000 to 10000 nM
KRAS G12S
  IC50: 1000 to 10000 nM

## C=CC(=O)N1CCO[C@H]2CN(C(=O)N(C)[C@H](C(=O)N[C@H]3Cc4cccc(c4)-c4ccc5c(c4)c(c(-c4cccnc4[C@H](C)OC)n5CC)CC(C)(C)COC(=O)[C@@H]4CCCN(N4)C3=O)C(C)C)C[C@H]21 (atropisomer, axis not shown) [Example A610]
NRAS WT
  IC50: 100 to 1000 nM
NRAS Q61K
  IC50: 100 to 1000 nM
KRAS Q61H
  IC50: 100 to 1000 nM
NRAS Q61R
  IC50: 100 to 1000 nM
KRAS WT
  IC50: 100 to 1000 nM
KRAS G12D
  IC50: 1000 to 10000 nM
K-Ras G13C
  IC50: 10 to 100 nM
NCI-H358 (K-Ras G12C)
  IC50: < 10 nM
K-Ras G12C
  IC50: 10 to 100 nM
NRAS G12C; [1]
  IC50: 10 to 100 nM
KRAS G12V
  IC50: 1000 to 10000 nM
KRAS G12S
  IC50: 1000 to 10000 nM

## C=CC(=O)N1CC2(CCN2C(=O)N(C)[C@H](C(=O)N[C@H]2Cc3nc(n(C)n3)-c3ccc4c(c3)c(c(-c3cccnc3[C@H](C)OC)n4CC)CC(C)(C)COC(=O)[C@@H]3CCCN(N3)C2=O)C(C)C)C1 (atropisomer, axis not shown) [Example A612]
NRAS WT
  IC50: 10 to 100 nM
NRAS Q61K
  IC50: 10 to 100 nM
KRAS Q61H
  IC50: 10 to 100 nM
NRAS Q61R
  IC50: 10 to 100 nM
KRAS WT
  IC50: 100 to 1000 nM
KRAS G12D
  IC50: 100 to 1000 nM
K-Ras G13C
  IC50: 100 to 1000 nM
NCI-H358 (K-Ras G12C)
  IC50: 100 to 1000 nM
K-Ras G12C
  IC50: 10 to 100 nM
NRAS G12C; [1]
  IC50: < 10 nM
KRAS G12V
  IC50: 100 to 1000 nM
KRAS G12S
  IC50: 100 to 1000 nM
